How the values were obtained:
Experiment in all cases: cells
Conditions in all cases: Homo sapiens
[1] = test system: A498; assay type: functional, cell-based;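 also: growth inhibition of human A498 cells, read out with a cell viability assay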
Description: SANGER: Inhibition of human A498 cell growth in a cell viability assay.

[2] = test system: D-263MG; assay type: functional, cell-based
Description: SANGER: Inhibition of human D-263MG cell growth in a cell viability assay.

[3] = test system: MEG-01; assay type: functional, cell-based;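 also: growth inhibition of MEG-01 cells, read out by a cell viability assay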
Description: SANGER: Inhibition of human MEG-01 cell growth in a cell viability assay.

[4] = test system: BV-173; assay type: functional, cell-based
Description: SANGER: Inhibition of human BV-173 cell growth in a cell viability assay.

[5] = test system: MMAC-SF; assay type: functional, cell-based;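 also: growth inhibition of human MMAC-SF cells, read out with a cell viability assay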
Description: SANGER: Inhibition of human MMAC-SF cell growth in a cell viability assay.

[6] = test system: C8166; assay type: functional, cell-based;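 also: growth inhibition of human C8166 cells measured by a cell viability assay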
Description: SANGER: Inhibition of human C8166 cell growth in a cell viability assay.

[7] = test system: COLO-824; assay type: functional, cell-based
Description: SANGER: Inhibition of human COLO-824 cell growth in a cell viability assay.

[8] = test system: IST-MEL1; assay type: functional, cell-based;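 also: growth inhibition of the cell line, read out with a cell viability assay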
Description: SANGER: Inhibition of human IST-MEL1 cell growth in a cell viability assay.

[9] = test system: SNU-5; assay type: functional, cell-based;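 also: cell viability readout used to measure growth inhibition in human NCI-SNU-5 cells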
Description: SANGER: Inhibition of human NCI-SNU-5 cell growth in a cell viability assay.

[10] = test system: MOLT-16; assay type: functional, cell-based;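 also: growth inhibition of human MOLT-16 cells, read out with a cell viability assay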
Description: SANGER: Inhibition of human MOLT-16 cell growth in a cell viability assay.

[11] = test system: ETK-1; assay type: functional, cell-based;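 also: growth inhibition of human ETK-1 cells, read out with a cell viability assay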
Description: SANGER: Inhibition of human ETK-1 cell growth in a cell viability assay.

[12] = test system: SK-LMS-1; assay type: functional, cell-based;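 also: growth inhibition of human SK-LMS-1 cells, read out with a cell viability assay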
Description: SANGER: Inhibition of human SK-LMS-1 cell growth in a cell viability assay.

[13] = test system: SK-UT-1; assay type: functional, cell-based;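 also: growth inhibition of SK-UT-1 cells, measured by a cell viability assay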
Description: SANGER: Inhibition of human SK-UT-1 cell growth in a cell viability assay.

[14] = test system: LAMA-84; assay type: functional, cell-based;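 also: growth inhibition of LAMA-84 cells, read out with a cell viability assay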
Description: SANGER: Inhibition of human LAMA-84 cell growth in a cell viability assay.

[15] = test system: Mo; assay type: functional, cell-based
Description: SANGER: Inhibition of human Mo-T cell growth in a cell viability assay.

[16] = test system: HL-60; assay type: functional, cell-based;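 also: growth inhibition of human HL-60 cells, read out with a cell viability assay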
Description: SANGER: Inhibition of human HL-60 cell growth in a cell viability assay.

[17] = test system: OCUB-M; assay type: functional, cell-based;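 also: growth inhibition of the cancer cell line, read out through a cell viability assay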
Description: SANGER: Inhibition of human OCUB-M cell growth in a cell viability assay.

[18] = test system: NOMO-1; assay type: functional, cell-based;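 also: growth inhibition of human NOMO-1 cells measured by a cell viability assay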
Description: SANGER: Inhibition of human NOMO-1 cell growth in a cell viability assay.

[19] = test system: OS-RC-2; assay type: functional, cell-based;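 also: growth inhibition of human OS-RC-2 cells, measured by a cell viability assay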
Description: SANGER: Inhibition of human OS-RC-2 cell growth in a cell viability assay.

[20] = test system: TE-10; assay type: functional, cell-based;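 also: growth inhibition of TE-10 cells, measured by a cell viability assay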
Description: SANGER: Inhibition of human TE-10 cell growth in a cell viability assay.

[21] = test system: EW-1; assay type: functional, cell-based;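 also: growth inhibition of the human EW-1 cell line, read out by a cell viability assay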
Description: SANGER: Inhibition of human EW-1 cell growth in a cell viability assay.

[22] = test system: RH-1; assay type: functional, cell-based;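 also: growth inhibition of human RH-1 cells, read out with a cell viability assay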
Description: SANGER: Inhibition of human RH-1 cell growth in a cell viability assay.

[23] = test system: GT3TKB; assay type: functional, cell-based;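 also: growth inhibition of the cell line, read out with a cell viability assay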
Description: SANGER: Inhibition of human GT3TKB cell growth in a cell viability assay.

[24] = test system: CCRF-CEM; assay type: functional, cell-based;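 also: inhibition of CCRF-CEM cell growth, measured by a cell viability assay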
Description: SANGER: Inhibition of human CCRF-CEM cell growth in a cell viability assay.

[25] = test system: KARPAS-45; assay type: functional, cell-based;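 also: inhibition of cell line growth, read out through a viability assay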
Description: SANGER: Inhibition of human KARPAS-45 cell growth in a cell viability assay.

[26] = test system: LB831-BLC; assay type: functional, cell-based;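 also: growth inhibition of LB831-BLC cells, read out with a cell viability assay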
Description: SANGER: Inhibition of human LB831-BLC cell growth in a cell viability assay.

[27] = test system: EW-13; assay type: functional, cell-based;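 also: growth inhibition of EW-13 cells, read out with a cell viability assay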
Description: SANGER: Inhibition of human EW-13 cell growth in a cell viability assay.

[28] = test system: COLO-684; assay type: functional, cell-based
Description: SANGER: Inhibition of human COLO-684 cell growth in a cell viability assay.

[29] = test system: KMOE-2; assay type: functional, cell-based;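 also: growth inhibition of human KMOE-2 cells, read out with a cell viability assay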
Description: SANGER: Inhibition of human KMOE-2 cell growth in a cell viability assay.

[30] = test system: COR-L88; assay type: functional, cell-based;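 also: growth inhibition of COR-L88 cells, read out with a cell viability assay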
Description: SANGER: Inhibition of human COR-L88 cell growth in a cell viability assay.

[31] = test system: NCI-H82; assay type: functional, cell-based;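 also: growth inhibition of NCI-H82 cells, measured with a cell viability readout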
Description: SANGER: Inhibition of human NCI-H82 cell growth in a cell viability assay.

[32] = test system: DSH1; assay type: functional, cell-based;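 also: growth inhibition of human DSH1 cells, measured with a cell viability readout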
Description: SANGER: Inhibition of human DSH1 cell growth in a cell viability assay.

[33] = test system: MN-60; assay type: functional, cell-based;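 also: growth inhibition of the MN-60 cell line, determined with a cell viability assay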
Description: SANGER: Inhibition of human MN-60 cell growth in a cell viability assay.

[34] = test system: TE-11; assay type: functional, cell-based;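 also: growth inhibition of human TE-11 cells, read out by a cell viability assay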
Description: SANGER: Inhibition of human TE-11 cell growth in a cell viability assay.

[35] = test system: DOHH-2; assay type: functional, cell-based;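 also: growth inhibition of human DOHH-2 cells, read out with a cell viability assay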
Description: SANGER: Inhibition of human DOHH-2 cell growth in a cell viability assay.

[36] = test system: C2BBe1; assay type: functional, cell-based;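 also: growth inhibition of C2BBe1 cells, read out through a viability assay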
Description: SANGER: Inhibition of human C2BBe1 cell growth in a cell viability assay.

[37] = test system: L-428; assay type: functional, cell-based
Description: SANGER: Inhibition of human L-428 cell growth in a cell viability assay.

[38] = test system: KE-37; assay type: functional, cell-based;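 also: growth inhibition of KE-37 cells, read out with a cell viability assay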
Description: SANGER: Inhibition of human KE-37 cell growth in a cell viability assay.

[39] = test system: KM12; assay type: functional, cell-based;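 also: KM12 cell growth inhibition, read out with a cell viability assay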
Description: SANGER: Inhibition of human KM12 cell growth in a cell viability assay.

[40] = test system: BB49-HNC; assay type: functional, cell-based;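 also: cell viability assay read-out, reported as inhibition of BB49-HNC cell growth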
Description: SANGER: Inhibition of human BB49-HNC cell growth in a cell viability assay.

[41] = test system: NTERA-2-cl-D1; assay type: functional, cell-based;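 also: inhibition of cell growth, measured with a cell viability assay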
Description: SANGER: Inhibition of human NTERA-S-cl-D1 cell growth in a cell viability assay.

[42] = test system: MHH-NB-11; assay type: functional, cell-based;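 also: growth inhibition of human MHH-NB-11 cells, read out by a cell viability assay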
Description: SANGER: Inhibition of human MHH-NB-11 cell growth in a cell viability assay.

[43] = test system: A704; assay type: functional, cell-based;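 also: growth inhibition of human A704 cells, read out with a cell viability assay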
Description: SANGER: Inhibition of human A704 cell growth in a cell viability assay.

[44] = test system: KY821; assay type: functional, cell-based;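 also: growth inhibition of human KY821 cells, read out by a cell viability assay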
Description: SANGER: Inhibition of human KY821 cell growth in a cell viability assay.

[45] = test system: KS-1; assay type: functional, cell-based;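 also: growth inhibition of KS-1 cells, read out with a cell viability assay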
Description: SANGER: Inhibition of human KS-1 cell growth in a cell viability assay.

[46] = test system: LXF-289 cell line; assay type: functional, cell-based
Description: SANGER: Inhibition of human LXF-289 cell growth in a cell viability assay.

[47] = test system: LB1047-RCC; assay type: functional, cell-based;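 also: inhibition of cell growth, determined with a cell viability assay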
Description: SANGER: Inhibition of human LB1047-RCC cell growth in a cell viability assay.

[48] = test system: ES5; assay type: functional, cell-based;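 also: growth inhibition of human ES5 cells, read out by a cell viability assay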
Description: SANGER: Inhibition of human ES5 cell growth in a cell viability assay.

[49] = test system: BE-13; assay type: functional, cell-based;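 also: growth inhibition of human BE-13 cells, measured with a cell viability assay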
Description: SANGER: Inhibition of human BE-13 cell growth in a cell viability assay.

[50] = test system: CTV-1; assay type: functional, cell-based;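 also: growth inhibition of the cell line, read out with a cell viability assay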
Description: SANGER: Inhibition of human CTV-1 cell growth in a cell viability assay.

[51] = test system: RCC10RGB; assay type: functional, cell-based;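 also: growth inhibition of human RCC10RGB cells, read out by a cell viability assay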
Description: SANGER: Inhibition of human RCC10RGB cell growth in a cell viability assay.

[52] = test system: A3-KAW; assay type: functional, cell-based;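 also: growth inhibition of human A3-KAW cells, read out with a cell viability assay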
Description: SANGER: Inhibition of human A3-KAW cell growth in a cell viability assay.

[53] = test system: MFM-223; assay type: functional, cell-based
Description: SANGER: Inhibition of human MFM-223 cell growth in a cell viability assay.

[54] = test system: SCH; assay type: functional, cell-based;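 also: growth inhibition of human SCH cells, read out in a cell viability assay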
Description: SANGER: Inhibition of human SCH cell growth in a cell viability assay.

[55] = test system: ES4; assay type: functional, cell-based;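 also: growth inhibition of human ES4 cells, read out by a cell viability assay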
Description: SANGER: Inhibition of human ES4 cell growth in a cell viability assay.

[56] = test system: A388; assay type: functional, cell-based;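 also: growth inhibition of human A388 cells, read out with a cell viability assay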
Description: SANGER: Inhibition of human A388 cell growth in a cell viability assay.

[57] = test system: LNCaP-Clone-FGC; assay type: functional, cell-based
Description: SANGER: Inhibition of human LNCaP-Clone-FGC cell growth in a cell viability assay.

[58] = test system: JAR; assay type: functional, cell-based;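 also: growth inhibition of human JAR cells determined with a cell viability assay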
Description: SANGER: Inhibition of human JAR cell growth in a cell viability assay.

[59] = test system: 8-MG-BA; assay type: functional, cell-based
Description: SANGER: Inhibition of human 8-MG-BA cell growth in a cell viability assay.

[60] = test system: BT-474; assay type: functional, cell-based
Description: SANGER: Inhibition of human BT-474 cell growth in a cell viability assay.

[61] = test system: HuTu80; assay type: functional, cell-based, HUTU-80
Description: SANGER: Inhibition of human HUTU-80 cell growth in a cell viability assay.

[62] = test system: HEL; assay type: functional, cell-based
Description: SANGER: Inhibition of human HEL cell growth in a cell viability assay.

[63] = test system: KNS-42; assay type: functional, cell-based
Description: SANGER: Inhibition of human KNS-42 cell growth in a cell viability assay.

[64] = test system: KM-H2; assay type: functional, cell-based
Description: SANGER: Inhibition of human KM-H2 cell growth in a cell viability assay.

[65] = test system: TE-6; assay type: functional, cell-based
Description: SANGER: Inhibition of human TE-6 cell growth in a cell viability assay.

[66] = test system: NCI-H1304; assay type: functional, cell-based
Description: SANGER: Inhibition of human NCI-H1304 cell growth in a cell viability assay.

N#C/C(=C1/Nc2ccccc2S1)c1ccnc(NCCc2cccnc2)n1
IC50 [1]: > 8000 nM | IC50 [2]: > 8000 nM | IC50 [3]: > 8000 nM | IC50 [4]: > 8000 nM | IC50 [5]: > 8000 nM | IC50 [6]: 4470 nM | IC50 [7]: > 8000 nM | IC50 [8]: > 8000 nM | IC50 [9]: > 8000 nM | IC50 [10]: 1380 nM | IC50 [11]: > 8000 nM | IC50 [12]: 7380 nM | IC50 [13]: 7500 nM | IC50 [14]: > 8000 nM | IC50 [15]: > 8000 nM | IC50 [16]: > 8000 nM | IC50 [17]: 1080 nM | IC50 [18]: > 8000 nM | IC50 [19]: > 8000 nM | IC50 [20]: 2230 nM | IC50 [21]: > 8000 nM | IC50 [22]: > 8000 nM | IC50 [23]: > 8000 nM | IC50 [24]: > 8000 nM | IC50 [25]: 6300 nM | IC50 [26]: 5690 nM | IC50 [27]: > 8000 nM | IC50 [28]: > 8000 nM | IC50 [29]: > 8000 nM | IC50 [30]: > 8000 nM | IC50 [31]: > 8000 nM | IC50 [32]: > 8000 nM | IC50 [33]: > 8000 nM | IC50 [34]: 300 nM | IC50 [35]: > 8000 nM | IC50 [36]: > 8000 nM | IC50 [37]: > 8000 nM | IC50 [38]: > 8000 nM | IC50 [39]: > 8000 nM | IC50 [40]: 1390 nM | IC50 [41]: > 8000 nM | IC50 [42]: > 8000 nM | IC50 [43]: > 8000 nM | IC50 [44]: > 8000 nM | IC50 [45]: 6030 nM | IC50 [46]: > 8000 nM | IC50 [47]: 1680 nM | IC50 [48]: 6600 nM | IC50 [49]: > 8000 nM | IC50 [50]: 2850 nM | IC50 [51]: > 8000 nM | IC50 [52]: > 8000 nM | IC50 [53]: > 8000 nM | IC50 [54]: > 8000 nM | IC50 [55]: > 8000 nM | IC50 [56]: > 8000 nM | IC50 [57]: > 8000 nM | IC50 [58]: > 8000 nM | IC50 [59]: 3680 nM | IC50 [60]: > 8000 nM | IC50 [61]: > 8000 nM | IC50 [62]: 7080 nM | IC50 [63]: > 8000 nM | IC50 [64]: > 8000 nM | IC50 [65]: > 8000 nM | IC50 [66]: > 8000 nM

Cc1[nH]c(/C=C2\C(=O)Nc3ccc(S(=O)(=O)Cc4c(Cl)cccc4Cl)cc32)c(C)c1C(=O)N1CCC[C@@H]1CN1CCCC1 [PHA-665752]
IC50 [1]: > 2000 nM | IC50 [2]: > 2000 nM | IC50 [3]: > 2000 nM | IC50 [4]: > 2000 nM | IC50 [5]: > 2000 nM | IC50 [6]: > 2000 nM | IC50 [7]: > 2000 nM | IC50 [8]: > 2000 nM | IC50 [9]: 124 nM | IC50 [10]: > 2000 nM | IC50 [11]: > 2000 nM | IC50 [12]: 898 nM | IC50 [13]: > 2000 nM | IC50 [14]: > 2000 nM | IC50 [15]: > 2000 nM | IC50 [16]: > 2000 nM | IC50 [17]: > 2000 nM | IC50 [18]: > 2000 nM | IC50 [19]: > 2000 nM | IC50 [20]: > 2000 nM | IC50 [21]: > 2000 nM | IC50 [22]: > 2000 nM | IC50 [23]: > 2000 nM | IC50 [24]: > 2000 nM | IC50 [25]: > 2000 nM | IC50 [26]: > 2000 nM | IC50 [27]: > 2000 nM | IC50 [28]: > 2000 nM | IC50 [29]: > 2000 nM | IC50 [30]: > 2000 nM | IC50 [31]: > 2000 nM | IC50 [32]: > 2000 nM | IC50 [33]: > 2000 nM | IC50 [34]: > 2000 nM | IC50 [35]: > 2000 nM | IC50 [36]: > 2000 nM | IC50 [37]: > 2000 nM | IC50 [38]: > 2000 nM | IC50 [39]: > 2000 nM | IC50 [40]: > 2000 nM | IC50 [41]: > 2000 nM | IC50 [42]: > 2000 nM | IC50 [43]: > 2000 nM | IC50 [44]: > 2000 nM | IC50 [45]: > 2000 nM | IC50 [46]: > 2000 nM | IC50 [47]: > 2000 nM | IC50 [48]: > 2000 nM | IC50 [49]: > 2000 nM | IC50 [50]: > 2000 nM | IC50 [51]: > 2000 nM | IC50 [52]: > 2000 nM | IC50 [53]: > 2000 nM | IC50 [55]: > 2000 nM | IC50 [56]: > 2000 nM | IC50 [57]: > 2000 nM | IC50 [58]: > 2000 nM | IC50 [59]: > 2000 nM | IC50 [60]: > 2000 nM | IC50 [61]: > 2000 nM | IC50 [62]: > 2000 nM | IC50 [63]: > 2000 nM | IC50 [64]: > 2000 nM | IC50 [65]: > 2000 nM | IC50 [66]: > 2000 nM

From ChEMBL document CHEMBL1201861, “Genomics of Drug Sensitity in Cancer screening data, Wellcome Trust Sanger Institute”
